Data reported in PubChem BioAssay (NCI).
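Five compound concentrations were applied to cells in 96-well plates for 48 hours; endpoints were derived by simple linear interpolation of the resulting dose-response curve. At the TGI there is no net growth.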

Key:
Experiment in all cases: NCI anticancer screen, dose series, 48 h
[1] = test system: 786-0 renal
[2] = test system: A498 renal
[3] = test system: A549 NSCLC
[4] = test system: ACHN renal
[5] = test system: CCRF-CEM leukemia
[6] = test system: COLO 205 colon
[7] = test system: DLD-1 colon
[8] = test system: DMS 114 small cell lung
[9] = test system: HCC-2998 colon
[10] = test system: HCT-116 colon
[11] = test system: HCT-15 colon
[12] = test system: HL-60(TB) leukemia
[13] = test system: HOP-62 NSCLC
[14] = test system: HOP-92 NSCLC
[15] = test system: HT29 colon
[16] = test system: IGROV1 ovarian
[17] = test system: K-562 leukemia
[18] = test system: KM12 colon
[19] = test system: KM20L2 colon
[20] = test system: LOX IMVI melanoma
[21] = test system: LXFL 529 NSCLC
[22] = test system: M14 melanoma
[23] = test system: M19-MEL melanoma
[24] = test system: MALME-3M melanoma
[25] = test system: MOLT-4 leukemia
[26] = test system: NCI-H226 lung
[27] = test system: NCI-H23 lung
[28] = test system: NCI-H460 lung
[29] = test system: NCI-H522 lung
[30] = test system: OVCAR-3 ovarian
[31] = test system: OVCAR-4 ovarian
[32] = test system: OVCAR-8 ovarian
[33] = test system: RPMI-8226 leukemia
[34] = test system: RXF-631 renal
[35] = test system: SF-268 CNS
[36] = test system: SF-295 CNS
[37] = test system: SK-MEL-2 melanoma
[38] = test system: SK-MEL-28 melanoma
[39] = test system: SK-MEL-5 melanoma
[40] = test system: SN12C renal
[41] = test system: SNB-19 CNS
[42] = test system: SNB-75 CNS
[43] = test system: SNB-78 CNS
[44] = test system: SW-620 colon
[45] = test system: TK-10 renal
[46] = test system: U251 CNS
[47] = test system: UACC-257 melanoma
[48] = test system: UACC-62 melanoma
[49] = test system: UO-31 renal
[50] = test system: XF 498 CNS
[51] = test system: DMS 273 small cell lung
[52] = test system: EKVX NSCLC
[53] = test system: HOP-18 NSCLC
[54] = test system: OVCAR-5 ovarian
[55] = test system: RXF 393 renal
[56] = test system: SF-539 CNS
[57] = test system: SK-OV-3 ovarian
[58] = test system: SR leukemia

## C=CCc1cc(-c2cc(CC=C)c(O)c(CNC)c2)cc(CNC)c1O
[1]
  TGI: 29 µM
[2]
  TGI: 34.6 µM
[3]
  TGI: 33 µM
[4]
  TGI: 31.7 µM
[5]
  TGI: 57 µM
[6]
  TGI: 33.5 µM
[7]
  TGI: 29.3 µM
[8]
  TGI: 30.4 µM
[9]
  TGI: 30 µM
[10]
  TGI: 28.1 µM
[11]
  TGI: 30.2 µM
[12]
  TGI: 35.2 µM
[13]
  TGI: 33.4 µM
[14]
  TGI: 23.3 µM
[15]
  TGI: 29.1 µM
[16]
  TGI: 32.7 µM
[17]
  TGI: 27.3 µM
[18]
  TGI: 30.2 µM
[19]
  TGI: 30.8 µM
[20]
  TGI: 27.2 µM
[21]
  TGI: 28.5 µM
[22]
  TGI: 30.5 µM
[23]
  TGI: 27.2 µM
[24]
  TGI: 33.6 µM
[25]
  TGI: 31.1 µM
[26]
  TGI: 31 µM
[27]
  TGI: 29.6 µM
[28]
  TGI: 30.1 µM
[29]
  TGI: 28.3 µM
[30]
  TGI: 27.9 µM
[31]
  TGI: 30.4 µM
[32]
  TGI: 32.5 µM
[33]
  TGI: 50.6 µM
[34]
  TGI: 28.8 µM
[35]
  TGI: 33.3 µM
[36]
  TGI: 31 µM
[37]
  TGI: 32.9 µM
[38]
  TGI: 34 µM
[39]
  TGI: 29.7 µM
[40]
  TGI: 31.3 µM
[41]
  TGI: 26.1 µM
[42]
  TGI: 24.3 µM
[43]
  TGI: 40.8 µM
[44]
  TGI: 31.7 µM
[45]
  TGI: 32.1 µM
[46]
  TGI: 28.4 µM
[47]
  TGI: 29.9 µM
[48]
  TGI: 31.9 µM
[49]
  TGI: 25.8 µM
[50]
  TGI: 30.3 µM

## CCOC(=O)N1C2C=C(C)C(ON2C(=O)c2ccccc2)C2C(C)C(=O)N21 (stereo unspecified)
[1]
  TGI: > 100 µM
[2]
  TGI: > 100 µM
[3]
  TGI: > 100 µM
[4]
  TGI: > 100 µM
[5]
  TGI: > 100 µM
[6]
  TGI: > 100 µM
[7]
  TGI: > 100 µM
[8]
  TGI: > 100 µM
[51]
  TGI: > 100 µM
[52]
  TGI: > 100 µM
[9]
  TGI: > 100 µM
[10]
  TGI: > 100 µM
[11]
  TGI: > 100 µM
[12]
  TGI: > 100 µM
[53]
  TGI: > 100 µM
[13]
  TGI: > 100 µM
[14]
  TGI: > 100 µM
[15]
  TGI: > 100 µM
[16]
  TGI: > 100 µM
[17]
  TGI: > 100 µM
[18]
  TGI: > 100 µM
[19]
  TGI: > 100 µM
[20]
  TGI: > 100 µM
[21]
  TGI: > 100 µM
[22]
  TGI: > 100 µM
[23]
  TGI: > 100 µM
[24]
  TGI: > 100 µM
[25]
  TGI: > 100 µM
[26]
  TGI: > 100 µM
[27]
  TGI: > 100 µM
[28]
  TGI: > 100 µM
[30]
  TGI: > 100 µM
[31]
  TGI: > 100 µM
[54]
  TGI: > 100 µM
[32]
  TGI: > 100 µM
[33]
  TGI: > 100 µM
[55]
  TGI: > 100 µM
[35]
  TGI: > 100 µM
[36]
  TGI: > 100 µM
[56]
  TGI: > 100 µM
[37]
  TGI: > 100 µM
[38]
  TGI: > 100 µM
[39]
  TGI: > 100 µM
[57]
  TGI: > 100 µM
[40]
  TGI: > 100 µM
[41]
  TGI: > 100 µM
[42]
  TGI: > 100 µM
[43]
  TGI: > 100 µM
[58]
  TGI: > 100 µM
[44]
  TGI: > 100 µM
[45]
  TGI: > 100 µM
[46]
  TGI: > 100 µM
[47]
  TGI: > 100 µM
[48]
  TGI: > 100 µM
[49]
  TGI: > 100 µM
[50]
  TGI: > 100 µM
